Data from patent publication US12673924B2, “Valiolamine derivatives as glucosidase inhibitors” (Emergent Product Development Gaithersburg Inc., priority 2021, dated 2026).

Columns and labels:
[1] = target: T1, recombinant alpha-glucosidase II (murine full-length glucosidase II) (Mus musculus, UniProt Q8BHN3); assay: Alpha-glucosidase II assay; assay type: biochemical; conditions: 4-methylumbelliferyl-alpha-D-pyranoside substrate, read-out: aGlc2 IC50
T1 construct: made in house; host or cells: HEK-293T cells co-transduced with two BacMam viruses (75% alpha, 25% beta); secreted into the culture supernatant
T1 sequence (Q8BHN3 with tags, fused parts or gaps isoform Q8BHN3-2): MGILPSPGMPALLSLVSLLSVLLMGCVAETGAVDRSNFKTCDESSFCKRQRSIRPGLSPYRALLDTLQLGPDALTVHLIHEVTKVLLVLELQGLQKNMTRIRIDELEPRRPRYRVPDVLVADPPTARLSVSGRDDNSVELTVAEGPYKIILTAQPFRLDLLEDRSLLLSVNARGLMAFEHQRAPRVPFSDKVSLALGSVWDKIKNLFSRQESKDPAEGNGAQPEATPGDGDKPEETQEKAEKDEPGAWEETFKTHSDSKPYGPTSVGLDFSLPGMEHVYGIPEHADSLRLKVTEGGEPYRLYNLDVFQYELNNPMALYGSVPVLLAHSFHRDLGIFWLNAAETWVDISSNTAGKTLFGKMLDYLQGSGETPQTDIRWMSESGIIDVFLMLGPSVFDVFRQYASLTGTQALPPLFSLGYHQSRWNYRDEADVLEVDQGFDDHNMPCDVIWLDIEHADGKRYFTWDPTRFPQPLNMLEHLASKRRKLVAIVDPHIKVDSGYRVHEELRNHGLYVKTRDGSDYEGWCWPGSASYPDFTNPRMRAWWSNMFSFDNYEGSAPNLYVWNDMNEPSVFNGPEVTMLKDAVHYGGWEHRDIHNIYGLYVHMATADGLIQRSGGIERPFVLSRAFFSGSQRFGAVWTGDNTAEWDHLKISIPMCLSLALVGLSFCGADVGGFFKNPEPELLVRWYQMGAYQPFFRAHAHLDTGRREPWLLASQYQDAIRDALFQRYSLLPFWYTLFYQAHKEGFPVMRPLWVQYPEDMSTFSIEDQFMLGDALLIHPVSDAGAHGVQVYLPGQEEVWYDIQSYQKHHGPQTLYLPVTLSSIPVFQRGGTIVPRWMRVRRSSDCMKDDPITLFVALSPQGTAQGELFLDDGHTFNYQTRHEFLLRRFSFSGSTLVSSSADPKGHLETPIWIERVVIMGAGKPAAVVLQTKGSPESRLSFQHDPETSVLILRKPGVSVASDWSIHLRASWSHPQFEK
T1 sequence (O08795 with tags, fused parts or gaps partner limits assumed): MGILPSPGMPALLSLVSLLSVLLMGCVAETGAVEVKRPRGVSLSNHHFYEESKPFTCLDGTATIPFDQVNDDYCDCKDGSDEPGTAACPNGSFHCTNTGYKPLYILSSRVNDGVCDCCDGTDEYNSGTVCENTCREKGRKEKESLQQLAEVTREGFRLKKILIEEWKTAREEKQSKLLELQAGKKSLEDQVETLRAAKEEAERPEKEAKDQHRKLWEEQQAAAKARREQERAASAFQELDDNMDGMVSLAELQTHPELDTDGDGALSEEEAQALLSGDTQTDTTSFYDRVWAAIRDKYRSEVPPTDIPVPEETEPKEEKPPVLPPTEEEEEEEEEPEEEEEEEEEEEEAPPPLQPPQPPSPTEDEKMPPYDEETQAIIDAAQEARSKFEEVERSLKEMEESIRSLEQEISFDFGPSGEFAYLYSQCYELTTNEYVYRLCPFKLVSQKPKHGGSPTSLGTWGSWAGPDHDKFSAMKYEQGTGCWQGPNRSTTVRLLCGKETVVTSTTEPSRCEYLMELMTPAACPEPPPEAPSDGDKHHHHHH
From the text: Preparation of Murine Full-length Glucosidase II: Glucosidase is a heterodimeric protein consisting of alpha and beta subunits. […] A single construct was designed for each of the subunits for gene synthesis and cloning into Gateway entry vectors. The alpha subunit was appended with a Strep-affinity tag and the beta subunit was appended with a 6-His affinity tag. The entry vectors were cloned into Kemp Protein's BacMam Destination vector and the vectors were transformed into chemically competent DH10Bac E. coli cells to produce recombinant glucosidase II bacmids. Bacmid isolates for each of the subunits were obtained following two rounds of blue-white screening and they were transfected into Sf9 cells cultivated in serum-free medium (Thermo Fisher Scientific). MOI of 10 with a ratio of 75% alpha subunit and 25% beta subunit was selected for expression of glucosidase II. […] Productions and purifications of glucosidase II were carried out at scales ranging from 1-liter to 10-liters. […] In another example, production at the 10-liter scale was performed in stirred-tank bioreactors at 27° C. and 80 rpm with dissolved oxygen level maintained at 50% of oxygen in air and pH maintained between 7.0 and 7.2. For both subunits, the cells were transduced using a total MOI of 10 (75% alpha and 25% beta) and the culture supernatant was harvested at 96 hours post-transduction using centrifugation and filtration through a 0.2 micron filter.
The supernatant from a 10-liter culture was placed in a stir-jar and 25 mL of Nickel-SEPHAROSE Excel resin (GE) was added. The supernatant was stirred overnight at 25 rpm and 4° C. and the resin was collected into a column (26 mm×60 mm) and washed with 8 CV of 2×DPBS at pH 7.4. The glucosidase II protein was eluted using a linear gradient of 0-60% of 2×DPBS and 500 mM imidazole at pH 7.4. Fractions (10 mL) were collected and analyzed by SDS PAGE and Western Blot (reducing anti-His and anti-Strep). Fractions containing purified glucosidase II were pooled and concentrated for application to a SUPERDEX 200 (26 mm×600 mm) column (GE). The column buffer was PBS pH 7.2 and the concentrated eluate pool was loaded at a rate of 1 mL per minute. Fractions (3 mL) were collected and analyzed using SDS PAGE and Western Blot (reducing anti-His and anti-Strep). Fractions containing purified glucosidase II in PBS pH 7.2 were pooled and concentrated to 1 mg/mL. The final product was filter sterilized and stored at 4° C.
Alpha-glucosidase II Assay: The assay was performed by incubating recombinant enzyme alpha-glucosidase II for 60 minutes at 37° C. with multiple dilutions of test compounds. 4-methylumbelliferyl-alpha-D-pyranoside was then introduced as the substrate to the mixture. Fluorogenic 1,4-methyllumbelliferone was generated, and the reaction was stopped with the stop solution (0.5 M glycine, 0.3 M NaOH pH 10) after an incubation of 30 minutes at 37° C. […] Percent inhibition was then plotted as a function of concentration for each test compound.

rat maltase = assay: Intestinal alpha-glucosidase assay, maltose substrate; assay type: biochemical; conditions: alpha-glucosidase from intestinal rat powder
Method: Intestinal alpha-glucosidases (rat maltase and sucrase): Intestinal alpha-glucosidases act upon 1,4-alpha-glucoside bonds, breaking down disaccharides to glucose. To perform this assay, partially purified alpha-glucosidase from intestinal rat powder was incubated for 60 minutes at 37° C. with multiple dilutions of test compounds. Maltose or Sucrose respectively was then introduced as substrate to the mixture and incubated for 30 minutes at 37° C. The reaction was stopped by a 5-minute incubation at 90° C. and the resultant glucose production is detected using Sigma's Glucose GO Kit. Percent inhibition was then plotted as a function of concentration for each test compound. The IC50 was determined using a 4-PL curve fit and serves as the measure of relative inhibition of each test compound (see Table 4). Table 4 summarizes the results of IC50s for each molecule against each tested glucosidase enzyme.

Row | SMILES | IC50 [1] [nM] | IC50 (rat maltase) [nM]
1 | [N-]=[N+]=Nc1ccc(NCCCCCCN[C@H]2C[C@](O)(CO)[C@@H](O)[C@H](O)[C@H]2O)c([N+](=O)[O-])c1 [Compound 2, (1S,2S,3R,4S,5S)-5-((6-((4-azido-2-nitrophenyl)amino)hexyl)amino)-1-(hydroxymethyl)cyclohexane-1,2,3,4-tetraol] | 33.7 | 1.65
2 | COCCCCCCCCCN[C@H]1C[C@](O)(CO)[C@@H](O)[C@H](O)[C@H]1O [Compound 3, (1S,2S,3R,4S,5S)-1-(hydroxymethyl)-5-((9-methoxynonyl)amino)cyclohexane-1,2,3,4-tetraol] | 490 | 102
3 | O=[N+]([O-])c1cc(-n2cnnn2)ccc1NCCCCCCN[C@H]1C[C@](O)(CO)[C@@H](O)[C@H](O)[C@H]1O [Compound 4, (1S,2S,3R,4S,5S)-1-(hydroxymethyl)-5-((6-((2-nitro-4-(1H-tetrazol-1-yl)phenyl)amino)hexyl)amino)cyclohexane-1,2,3,4-tetraol] | 1420 | 512
4 | O=[N+]([O-])c1cc(-n2nccn2)ccc1NCCCCCCN[C@H]1C[C@](O)(CO)[C@@H](O)[C@H](O)[C@H]1O [Compound 5, (1S,2S,3R,4S,5S)-1-(hydroxymethyl)-5-((6-((2-nitro-4-(2H-1,2,3-triazol-2-yl)phenyl)amino)hexyl)amino)cyclohexane-1,2,3,4-tetraol] | < 1 | < 33.3
5 | O=[N+]([O-])c1cc(-n2ccnn2)ccc1NCCCCCCN[C@H]1C[C@](O)(CO)[C@@H](O)[C@H](O)[C@H]1O [Compound 6, (1S,2S,3R,4S,5S)-1-(hydroxymethyl)-5-((6-((2-nitro-4-(1H-1,2,3-triazol-1-yl)phenyl)amino)hexyl)amino)cyclohexane-1,2,3,4-tetraol] | 15.5 | < 33.3
6 | O=[N+]([O-])c1cc(-c2ncccn2)ccc1NCCCCCCN[C@H]1C[C@](O)(CO)[C@@H](O)[C@H](O)[C@H]1O [Compound 7, (1S,2S,3R,4S,5S)-1-(hydroxymethyl)-5-((6-((2-nitro-4-(pyrimidin-2-yl)phenyl)amino)hexyl)amino)cyclohexane-1,2,3,4-tetraol] | 1.1 | 8.14
7 | [N-]=[N+]=Nc1ccc(NCCCCN[C@H]2C[C@](O)(CO)[C@@H](O)[C@H](O)[C@H]2O)c([N+](=O)[O-])c1 [Compound 8, (1S,2S,3R,4S,5S)-5-((4-((4-azido-2-nitrophenyl)amino)butyl)amino)-1-(hydroxymethyl)cyclohexane-1,2,3,4-tetraol] | 1010 | 5.3
8 | [N-]=[N+]=Nc1ccc(NCCCCCN[C@H]2C[C@](O)(CO)[C@@H](O)[C@H](O)[C@H]2O)c([N+](=O)[O-])c1 [Compound 9, (1S,2S,3R,4S,5S)-5-((5-((4-azido-2-nitrophenyl)amino)pentyl)amino)-1-(hydroxymethyl)cyclohexane-1,2,3,4-tetraol] | 27 | 4.86
9 | [N-]=[N+]=Nc1ccc(NCCOCCN[C@H]2C[C@](O)(CO)[C@@H](O)[C@H](O)[C@H]2O)c([N+](=O)[O-])c1 [Compound 10, (1S,2S,3R,4S,5S)-5-((2-(2-((4-azido-2-nitrophenyl)amino)ethoxy)ethyl)amino)-1-(hydroxymethyl)cyclohexane-1,2,3,4-tetraol] | 37000 | 26.1
10 | O=C(O)CCCCN[C@H]1C[C@](O)(CO)[C@@H](O)[C@H](O)[C@H]1O [Compound 11, 5-(((1S,2S,3R,4S,5S)-2,3,4,5-tetrahydroxy-5-(hydroxymethyl)cyclohexyl)amino)pentanoic acid] | > 100000 | 7580
11 | N[C@H]1C[C@](O)(CO)[C@@H](O)[C@H](O)[C@H]1O [Valiolamine] | > 100000 | 1300
